Source: PubChem BioAssay AID1963984 (Molecular Pharmacology Branch, DTP, NCI, 2024)
pIC50: −log10 of the molar value.

System: 233499-124-R-J3-PDC spheroids with HUVEC/MSC, viability
Test: Anticancer human tumor 233499-124-R-J3-PDC patient-derived colon adenocarcinoma cell line growth inhibition [PI3K]
Details: for pIC50: curve of first compound; for viability, T/C: stronger effect = lower value
Method in brief: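 Combination activity was assessed by viability in multicellular tumor spheroids carrying HUVEC and MSC components. Agents were tested with PI3K inhibitors from a Cmax-based top dose (or 10 microM) downward in half-log increments.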

[1] = second compound 0.0316 µM, first compound 0.0316 µM
[2] = second compound 0.0316 µM, first compound 0.1 µM
[3] = second compound 0.0316 µM, first compound 0.316 µM
[4] = second compound 0.0316 µM, first compound 1 µM
[5] = second compound 0.0316 µM, first compound 3.16 µM
[6] = second compound 0.0316 µM, first compound 10 µM
[7] = second compound 0.1 µM, first compound 0.0316 µM
[8] = second compound 0.1 µM, first compound 0.1 µM
[9] = second compound 0.1 µM, first compound 0.316 µM
[10] = second compound 0.1 µM, first compound 1 µM
[11] = second compound 0.1 µM, first compound 3.16 µM
[12] = second compound 0.1 µM, first compound 10 µM
[13] = second compound 0.316 µM, first compound 0.0316 µM
[14] = second compound 0.316 µM, first compound 0.1 µM
[15] = second compound 0.316 µM, first compound 0.316 µM
[16] = second compound 0.316 µM, first compound 1 µM
[17] = second compound 0.316 µM, first compound 3.16 µM
[18] = second compound 0.316 µM, first compound 10 µM
[19] = second compound 1 µM, first compound 0.0316 µM
[20] = second compound 1 µM, first compound 0.1 µM
[21] = second compound 1 µM, first compound 0.316 µM
[22] = second compound 1 µM, first compound 1 µM
[23] = second compound 1 µM, first compound 3.16 µM
[24] = second compound 1 µM, first compound 10 µM
[25] = second compound 0.00316 µM, first compound 0.0316 µM
[26] = second compound 0.00316 µM, first compound 0.1 µM
[27] = second compound 0.00316 µM, first compound 0.316 µM
[28] = second compound 0.00316 µM, first compound 1 µM
[29] = second compound 0.00316 µM, first compound 3.16 µM
[30] = second compound 0.00316 µM, first compound 10 µM
[31] = second compound 0.01 µM, first compound 0.0316 µM
[32] = second compound 0.01 µM, first compound 0.1 µM
[33] = second compound 0.01 µM, first compound 0.316 µM
[34] = second compound 0.01 µM, first compound 1 µM
[35] = second compound 0.01 µM, first compound 3.16 µM
[36] = second compound 0.01 µM, first compound 10 µM
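Further: spheroids exposed to agents for seven days before readout.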
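Wherever viability, T/C is given: percent viability relative to DMSO vehicle control taken as 100%.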

CCCS(=O)(=O)Nc1ccc(F)c(C(=O)c2c[nH]c3ncc(-c4ccc(Cl)cc4)cc23)c1F + Cc1nc(NC(=O)N2CCCC2C(N)=O)sc1-c1ccnc(C(C)(C)C(F)(F)F)c1
pIC50 (second compound 0.0316 µM): 5.28
pIC50 (second compound 0.1 µM): 5.32
pIC50 (second compound 0.316 µM): 5.32
pIC50 (second compound 1 µM): 5.33
pIC50 (second compound 3.16 µM): 5.45
pIC50 (second compound 10 µM): > 7.50
viability, T/C [1]: 119%
viability, T/C [2]: 98.2%
viability, T/C [3]: 87.2%
viability, T/C [4]: 110%
viability, T/C [5]: 89%
viability, T/C [6]: 1.84%
viability, T/C [7]: 97%
viability, T/C [8]: 109%
viability, T/C [9]: 84.8%
viability, T/C [10]: 92.5%
viability, T/C [11]: 77.7%
viability, T/C [12]: 4.22%
viability, T/C [13]: 98.9%
viability, T/C [14]: 81.7%
viability, T/C [15]: 84.5%
viability, T/C [16]: 98.1%
viability, T/C [17]: 78.2%
viability, T/C [18]: 1.3%
viability, T/C [19]: 82.8%
viability, T/C [20]: 71.8%
viability, T/C [21]: 86.3%
viability, T/C [22]: 67%
viability, T/C [23]: 75.3%
viability, T/C [24]: 1.86%
viability, T/C (second compound 3.16 µM, first compound 0.0316 µM): 55.8%
viability, T/C (second compound 3.16 µM, first compound 0.1 µM): 59.1%
viability, T/C (second compound 3.16 µM, first compound 0.316 µM): 49.1%
viability, T/C (second compound 3.16 µM, first compound 1 µM): 53.9%
viability, T/C (second compound 3.16 µM, first compound 3.16 µM): 59.4%
viability, T/C (second compound 3.16 µM, first compound 10 µM): 4.28%
viability, T/C (second compound 10 µM, first compound 0.0316 µM): 34.1%
viability, T/C (second compound 10 µM, first compound 0.1 µM): 35.4%
viability, T/C (second compound 10 µM, first compound 0.316 µM): 50.9%
viability, T/C (second compound 10 µM, first compound 1 µM): 29.8%
viability, T/C (second compound 10 µM, first compound 3.16 µM): 22.8%
viability, T/C (second compound 10 µM, first compound 10 µM): 0.89%

CC(C)NCC(C(=O)N1CCN(c2ncnc3c2C(C)CC3O)CC1)c1ccc(Cl)cc1 (stereo unspecified) + COc1c(OCCCN2CCOCC2)ccc2c3n(c(=NC(=O)c4cnc(N)nc4)nc12)CCN3
pIC50 (second compound 0.00316 µM): < 5.00
pIC50 (second compound 0.01 µM): < 5.00
pIC50 (second compound 0.0316 µM): < 5.00
pIC50 (second compound 0.1 µM): < 5.00
pIC50 (second compound 0.316 µM): > 7.50
pIC50 (second compound 1 µM): > 7.50
viability, T/C [25]: 92.1%
viability, T/C [26]: 88.9%
viability, T/C [27]: 74%
viability, T/C [28]: 81.8%
viability, T/C [29]: 98.8%
viability, T/C [30]: 81.5%
viability, T/C [31]: 103%
viability, T/C [32]: 96.6%
viability, T/C [33]: 82.7%
viability, T/C [34]: 97.1%
viability, T/C [35]: 90%
viability, T/C [36]: 80.2%
viability, T/C [1]: 81%
viability, T/C [2]: 98.1%
viability, T/C [3]: 76.6%
viability, T/C [4]: 84.4%
viability, T/C [5]: 84.3%
viability, T/C [6]: 84.1%
viability, T/C [7]: 68.4%
viability, T/C [8]: 76.4%
viability, T/C [9]: 61.4%
viability, T/C [10]: 52.2%
viability, T/C [11]: 49.7%
viability, T/C [12]: 65.8%
viability, T/C [13]: 32.2%
viability, T/C [14]: 32%
viability, T/C [15]: 31.9%
viability, T/C [16]: 17.1%
viability, T/C [17]: 35.4%
viability, T/C [18]: 20.6%
viability, T/C [19]: 5.67%
viability, T/C [20]: 11.1%
viability, T/C [21]: 6.6%
viability, T/C [22]: 11.4%
viability, T/C [23]: 16.2%
viability, T/C [24]: 10.2%

C[C@@H](NC(=O)c1ncnc(N)c1Cl)c1ncc(C(=O)Nc2cc(C(F)(F)F)c(Cl)cn2)s1 + CC(Nc1ccc2c(c1)OCCn1cc(N3C(=O)OCC3C(F)F)nc1-2)C(N)=O
pIC50 (second compound 0.00316 µM): < 5.00
pIC50 (second compound 0.01 µM): < 5.00
pIC50 (second compound 0.0316 µM): < 5.00
pIC50 (second compound 0.1 µM): < 5.00
pIC50 (second compound 0.316 µM): < 5.00
pIC50 (second compound 1 µM): < 5.00
viability, T/C [25]: 102%
viability, T/C [26]: 112%
viability, T/C [27]: 113%
viability, T/C [28]: 105%
viability, T/C [29]: 126%
viability, T/C [30]: 90.5%
viability, T/C [31]: 113%
viability, T/C [32]: 119%
viability, T/C [33]: 130%
viability, T/C [34]: 105%
viability, T/C [35]: 111%
viability, T/C [36]: 102%
viability, T/C [1]: 99.4%
viability, T/C [2]: 119%
viability, T/C [3]: 109%
viability, T/C [4]: 98.6%
viability, T/C [5]: 113%
viability, T/C [6]: 74.5%
viability, T/C [7]: 87.2%
viability, T/C [8]: 84.6%
viability, T/C [9]: 108%
viability, T/C [10]: 106%
viability, T/C [11]: 102%
viability, T/C [12]: 92%
viability, T/C [13]: 82.8%
viability, T/C [14]: 81.2%
viability, T/C [15]: 85.6%
viability, T/C [16]: 95.2%
viability, T/C [17]: 102%
viability, T/C [18]: 65.8%
viability, T/C [19]: 53.5%
viability, T/C [20]: 68.5%
viability, T/C [21]: 52.5%
viability, T/C [22]: 83%
viability, T/C [23]: 77.2%
viability, T/C [24]: 56.6%
